{
  "source": "patent US20230174571A1",
  "about": "“METHOD OF TREATING SHIP1-MEDIATED DISEASES USING PELOROL DERIVATIVES” (Zebrapeutics Inc., priority 2020, published 2023)",
  "key": {"[1]": {"tested_on": "SHIP1 (full length SHIP1, PPAC, PAC2)", "assay": "In vitro phosphatase assay", "assay_type": "biochemical", "settings": "full length SHIP1, 293T derived PPAC, E. coli derived PPAC, and PAC2; 50 μM IP4", "procedure": "In vitro phosphatase assay. The phosphatase assay was performed in 96-well microtiter plates with 10 ng of enzyme/well in a total volume of 25 μL in 20 mM Tris-HCl, pH 7.4, 150 mM NaCl, 0.05% Tween-20, 10 mM MgCl2 as described (Ong et al., 2007). Enzyme was incubated with or compound I-1 (dissolved in ethanol) for 10 minutes at 23° C., before the addition of 50 μM of inositol-1,3,4,5-tetrakisphosphate (IP4) (Echelon Bioscience Inc., Salt Lake City, Utah). The reaction was allowed to proceed for 10 minutes at 37° C. and the amount of inorganic phosphate released was assessed by the addition of Malachite\nGreen reagent and absorbance measurement at 650 nm. For enzyme kinetic determination, different concentrations of IP4 (0-300 μM) were used and the reactions were stopped at different time points. Initial velocities were calculated, and Kcat and KM were determined using GraphPad 6 software."}, "[2]": {"tested_on": "ConA-induced liver injury", "assay": "ConA-induced liver injury model", "assay_type": "in vivo, mouse", "source_text": "Concanavalin A (ConA) induced liver injury model is an immune-mediated liver injury model, resembling viral and autoimmune hepatitis in humans. Intravenous delivery of ConA in mice is known to activate T cells, resulting in increased inflammatory cytokines such as TNF-α, IFN-r and IL-6 as well as decreased anti-inflammatory cytokine IL-10. The T cell infiltration into the liver leads to consequences of hepatocyte apoptosis and necrosis, resulting in increased levels of liver enzymes ALT and AST in plasma. (Zhou 2015) Methods: Five groups (n=5 each) of C57 mice were treated with a blank control, compound I-1 alone (10 mg/kg/d), ConA (15 mg/kg), ConA+compound I-1 (3 mg/kg/d) or ConA+compound I-1 (10 mg/kg/d). In each instance, compound I-1 was given 5 days before ConA injection (if applicable) via oral gavage twice a day. One hour after the last drug administration, ConA (15 mg/kg) was delivered intravenously. 12 hours after the ConA injection, orbital blood was taken from the eye and the enzyme biochemistry (plasma) and blood cell type tests were performed by analyzers."}, "SHIP1": {"target": "T1, SHIP1 (Mus musculus, UniProt Q9ES52)", "T1 sequence (Q9ES52 1-1191)": "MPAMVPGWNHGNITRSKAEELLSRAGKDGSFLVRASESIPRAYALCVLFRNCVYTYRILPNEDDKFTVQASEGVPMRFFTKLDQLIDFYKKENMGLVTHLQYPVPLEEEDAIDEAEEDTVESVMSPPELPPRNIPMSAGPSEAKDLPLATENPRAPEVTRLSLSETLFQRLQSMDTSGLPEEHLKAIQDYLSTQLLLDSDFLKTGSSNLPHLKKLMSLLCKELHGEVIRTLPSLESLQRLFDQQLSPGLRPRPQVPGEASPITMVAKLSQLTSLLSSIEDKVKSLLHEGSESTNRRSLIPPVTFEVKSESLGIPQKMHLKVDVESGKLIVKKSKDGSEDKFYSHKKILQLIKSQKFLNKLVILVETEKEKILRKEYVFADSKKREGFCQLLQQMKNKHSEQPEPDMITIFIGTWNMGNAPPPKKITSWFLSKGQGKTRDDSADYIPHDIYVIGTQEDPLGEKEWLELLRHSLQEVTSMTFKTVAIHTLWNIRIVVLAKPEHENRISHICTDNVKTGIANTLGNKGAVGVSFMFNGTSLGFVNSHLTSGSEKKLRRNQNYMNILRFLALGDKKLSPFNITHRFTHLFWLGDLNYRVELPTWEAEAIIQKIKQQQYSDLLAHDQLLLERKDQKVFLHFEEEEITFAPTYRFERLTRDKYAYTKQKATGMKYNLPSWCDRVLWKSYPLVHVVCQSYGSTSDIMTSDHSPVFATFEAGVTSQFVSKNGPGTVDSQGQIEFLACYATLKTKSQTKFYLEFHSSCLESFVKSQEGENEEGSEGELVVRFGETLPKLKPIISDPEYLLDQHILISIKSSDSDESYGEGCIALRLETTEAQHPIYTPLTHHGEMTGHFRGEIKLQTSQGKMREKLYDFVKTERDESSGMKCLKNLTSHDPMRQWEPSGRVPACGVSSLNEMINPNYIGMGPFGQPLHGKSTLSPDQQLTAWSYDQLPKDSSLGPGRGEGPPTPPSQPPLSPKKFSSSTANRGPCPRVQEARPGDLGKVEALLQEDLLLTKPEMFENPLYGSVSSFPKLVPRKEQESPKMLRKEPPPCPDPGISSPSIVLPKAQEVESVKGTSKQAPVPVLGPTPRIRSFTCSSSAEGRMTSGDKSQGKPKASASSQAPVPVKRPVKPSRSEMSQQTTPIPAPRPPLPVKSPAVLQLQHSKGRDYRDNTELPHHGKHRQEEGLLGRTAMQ", "settings": "binds to the same SHIP1 C2 domain as PI(3,4)P2; Ong et al., 2007; cited from earlier work"}, "[3]": {"settings": "C57 mice, ConA 15 mg/kg i.v., compound 3 or 10 mg/kg/d oral gavage, 12 hours after ConA"}, "[4]": {"settings": "repeat experiment, 10 mg/kg/d, dexamethasone 0.5 mg/kg/d as positive control"}},
  "data": [
    {"compound": "Cc1cc(O)cc2c1C1(C)CCC3C(C)(C)CCCC3(C)C1C2", "note": "(centres unmarked) [Compound I-1]", "values": [
      {"measurement": "activation of phosphatase activity", "setting": "[1]", "result": "could be activated"},
      {"measurement": "BUN", "setting": "[2]; [3]", "result": "significantly reduced"},
      {"measurement": "TBIL", "setting": "[2]; [3]", "result": "significantly reduced"},
      {"measurement": "plasma ALT", "setting": "[2]; [3]", "result": "significantly reduced"},
      {"measurement": "plasma AST", "setting": "[2]; [3]", "result": "significantly reduced"},
      {"measurement": "ConA-induced ALT level", "setting": "[2]; [4]", "result": "significantly lowered"},
      {"measurement": "ConA-induced AST level", "setting": "[2]; [4]", "result": "significantly lowered"},
      {"measurement": "SHIP1 functional activity", "setting": "SHIP1", "result": "increases SHIP1 functional activity"}
    ]}
  ]
}
